Patent EP3750528A1, “COMPOSITIONS FOR TREATING DYSTROPHIES AND MYOTONIA” (Nexien Biopharma, Inc., priority 2019, dated 2020)

How the values were obtained:
[1] = system: myotonia and myalgia; assay: Previous treatments for myotonia and myalgia (case history)
[2] = system: dystrophic mdx mice; conditions: injection; mostly via activation of TRPV1 and TRPA1; cited from earlier work
[3] = Patient 6 (CLCN1-congenital myotonia)
[4] = Patient 2 (DM2), suspended also for risk of cardiac arrhythmias

Structure (SMILES)	myalgia under previous treatment ([1]; Patient 2 (DM2))	myotonia under previous treatment [1, 3]	myotonia under previous treatment [1, 4]	also measured
CC(C)Cc1ccc(C(C)C(=O)O)cc1 (stereo not shown) [ibuprofen]	unsuccessfully treated			
Nc1nnc(-c2cccc(Cl)c2Cl)c(N)n1 [lamotrigine]		no relevant improvement of myotonia		
C=C(C)[C@@H]1CCC(C)=C[C@H]1c1c(O)cc(CCCCC)cc1O [CBD, cannabidiol]				effect in dystrophic mdx mice [2]: promoted myotube formation and reduced inflammation
O=C(NCC1CCCCN1)c1cc(OCC(F)(F)F)ccc1OCC(F)(F)F (stereo not shown) [flecainid]		no relevant improvement of myotonia		
Cc1ccc(C(=O)C(C)CN2CCCCC2)cc1 (stereo not shown) [tolperisone]		no relevant improvement of myotonia		
CC(C)C[C@H](CN)CC(=O)O [pregabalin]	unsuccessfully treated		inefficacy	
NC(=O)N1c2ccccc2C=Cc2ccccc21 [carbamazepine]		no relevant improvement of myotonia	inefficacy	
Cc1cccc(C)c1OCC(C)N (stereo not shown) [mexiletine]		improved the myotonia	inefficacy	drug-related side effect of previous treatment ([1]; Patient 6, resolved on drug discontinuation): severe major depression
COc1ccccc1OCC(O)COC(N)=O (stereo not shown) [methocarbamol]	unsuccessfully treated			
